Measurements as given in patent US20180179198A1, “TRICYCLIC MODULATORS OF TNF SIGNALING” (AbbVie Inc., priority 2015, published 2018).
Where a name gives a salt, the structure may show the parent alone.

These compounds were tested against TNFα trimer (Homo sapiens, UniProt P01375) (assay: TNFα FP Competitive Binding Assay). Conditions: TNFα FP competitive binding assay; class symbols A/B/C; read-out: TNF IC50.
Summary of the method: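 Compounds, 12-point 1:3 dilutions topping at 100 μM (2.0% DMSO) or 338 μM (3.4% DMSO) final, compete with 1 nM fluorescent probe for 20 nM TNFα trimer in HEPES/NaCl/EDTA/Triton buffer. After 18-24 h incubation at 37 °C plus 1 h rt equilibration, background-subtracted polarization is read and fitted with variable slope.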

Sequence of TNFα trimer (P01375 77-233 limits assumed): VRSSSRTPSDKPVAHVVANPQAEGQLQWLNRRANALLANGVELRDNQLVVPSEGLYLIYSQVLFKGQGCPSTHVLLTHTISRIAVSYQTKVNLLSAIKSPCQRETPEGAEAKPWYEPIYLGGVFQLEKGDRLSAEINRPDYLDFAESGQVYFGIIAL

Structure (SMILES)	IC50 [nM]
O[C@H]1CC[C@@H](Oc2cc(-c3ccc4nc5n(c4n3)C3(COC5)COc4ccccc43)ccn2)CC1 (some centres unmarked) [AX.2]	1000 to 10000
OC1CCCN(c2ncc(-c3ccc4nc5n(c4n3)C3(CCOc4ccccc43)COC5)cn2)C1 (centres unmarked) [BB.3]	< 1000
C[C@@H]1CN(C(=O)COC(C)(C)C)CCN1c1ncc(-c2ccc3nc4n(c3n2)C2(COC4)COc3ccccc32)cn1 (stereo partly drawn) [BG.5, 1-((3R)-4-(5-(2H,6′H,8′H-Spiro[benzofuran-3,9′-pyrido[3′,2′:4,5]imidazo[2,1-c][1,4]oxazin]-2′-yl)pyrimidin-2-yl)-3-methylpiperazin-1-yl)-2-(tert-butoxy)ethan-1-one]	1000 to 10000
c1ccc([C@H]2COCc3nc4ccc(-c5cnc(N6CCOCC6)nc5)nc4n32)cc1 [AB.1]	< 1000
c1ccc([C@H]2CCc3nc4ccc(-c5ccnc(OC6CCOCC6)c5)cc4n32)cc1 [AA.4]	< 1000
C[C@H]1CN(C(=O)CO)CCN1c1ncc(-c2ccc3nc4n(c3n2)C2(COC4)COc3ccccc32)cn1 (some centres unmarked) [BH.1]	< 1000
c1ccc([C@H]2CCc3nc4ccc(-c5ccnc(O[C@@H]6CCNC6)c5)nc4n32)cc1 [AT.2]	1000 to 10000
OC1CN(c2ncc(-c3ccc4nc5n(c4n3)C3(CCOc4ccccc43)COC5)cn2)C1 (centres unmarked) [BB.4]	< 1000
OCC1(F)CCN(c2ncc(-c3ccc4nc5n(c4n3)C(c3ccccc3)COC5)cn2)CC1 (centres unmarked) [AZ.5]	< 1000
OC1CCN(c2ncc(-c3ccc4nc5n(c4n3)[C@@]3(COC5)COc4ccccc43)cn2)CC1 [BJ.1]	< 1000
O=C1NCC2CN(c3ncc(-c4ccc5nc6n(c5n4)C(c4ccccc4F)COC6)cn3)CCN12 (centres unmarked) [AH.7]	< 1000
COCCOc1cc(-c2ccc3nc4n(c3n2)[C@@H](c2ccccc2)CC4)ccn1 [BC.1]	1000 to 10000
CNCC(=O)N1CC=C(c2ccc3nc4n(c3n2)C2(COC4)COc3ccccc32)CC1 (centres unmarked) [BF.2]	1000 to 10000
CC(C)(O)COc1cc(-c2ccc3nc4n(c3n2)[C@@H](c2ccccc2)CC4)ccn1 [BC.2]	1000 to 10000
CS(=O)(=O)c1ncc(-c2ccc3nc4n(c3n2)C2(CCOc3ccccc32)COC4)cn1 (centres unmarked) [BA.3]	1000 to 10000
CN1CCN(c2ncc(-c3ccc4nc5n(c4n3)C3(COC5)COc4ccccc43)cn2)CC1 (centres unmarked) [AU.5]	1000 to 10000
O=C1NCC2CN(c3ncc(-c4ccc5nc6n(c5n4)[C@@H](C4CCCCC4)CC6)cn3)CCN12 (some centres unmarked) [AH.5]	< 1000

The remaining lines, values ahead:

IC50 [nM]	Structure (SMILES)
1000 to 10000	CC(C)(O)c1ncc(-c2ccc3nc4n(c3n2)[C@@]2(CCOc3ccccc32)COC4)cn1 [Y.15]
1000 to 10000	CCOC(=O)CNc1ncc(-c2ccc3nc4c(n3c2)C(c2ccccc2OC)CCCC4)cn1 (centres unmarked) [S.2]
< 1000	Fc1cccc(C2COCc3nc4ccc(-c5cnc(N6CCCOCC6)nc5)cc4n32)c1 (centres unmarked) [X.3]
1000 to 10000	COc1ncc(-c2ccc3nc4n(c3c2)C(c2ccccc2)COC4)cc1C (centres unmarked) [T.7]
< 1000	CC(C)(O)c1ncc(-c2ccc3nc4n(c3c2)[C@@H](c2ccccc2)CCC4)cn1 [Y.2]
< 1000	Fc1ccc(F)c(C2COCc3nc4ccc(-c5cnc(N6CCOCC6)nc5)cc4n32)c1 (centres unmarked) [U.1]
< 1000	COc1ccccc1C1CCCCc2nc3ccc(-c4cnc(N5CCOCC5)nc4)cn3c21 (centres unmarked) [S.1]

Same assay, conditions: Table BL; read-out: TNF IC50

IC50 [nM]	Structure (SMILES)
< 1000	C[C@@H]1CN(c2ncc(-c3ccc4nc5n(c4n3)[C@@]3(COC5)COc4ccccc43)cn2)CCN1C(=O)CO [BL.1]

Same assay, conditions: fluorescence polarization competition; 20 nM TNFα trimer, 1 nM OregonGreen488 probe; read-out: TNF IC50 (TNFα FP binding assay IC50)

Structure (SMILES)	IC50 [nM]
COc1ccccc1C1COCc2nc3ccc(-c4cnc(C(C)(C)O)nc4)cn3c21 (centres unmarked) [Example 32, 2-(5-(4-(2-Methoxyphenyl)-3,4-dihydro-1H-pyrano[3′,4′:4,5]imidazo[1,2-a]pyridin-7-yl)pyrimidin-2-yl)propan-2-ol]	< 1000
c1ccc([C@@H]2COCc3nc4ccc(-c5cnc(N6CCOCC6)nc5)cc4n32)cc1 [Example 20, (R)-7-(2-Morpholinopyrimidin-5-yl)-4-phenyl-3,4-dihydro-1H-benzo[4,5]imidazo[2,1-c][1,4]oxazine]	10000 to 100000
CC(C)(O)c1ncc(-c2ccc3nc4n(c3n2)C(C)(c2ccccc2)CC4)cn1 (centres unmarked) [Example 39, 2-(5-(8-Methyl-8-phenyl-7,8-dihydro-6H-pyrrolo[2′,1′:2,3]imidazo[4,5-b]pyridin-2-yl)pyrimidin-2-yl)propan-2-ol]	< 1000
COc1ccccc1C1CCOc2nc3ccc(-c4ccnc(O[C@H]5CC[C@H](O)CC5)c4)cn3c21 (stereo partly drawn) [Example 57, trans-4-((4-(4-(2-Methoxyphenyl)-3,4-dihydro-2H-pyrano[2′,3′:4,5]imidazo[1,2-a]pyridin-7-yl)pyridin-2-yl)oxy)cyclohexanol]	< 1000
c1ccc(C2CCc3nc4ccc(-c5ccc(N6CCNCC6)nc5)cc4n32)cc1 (centres unmarked) [A.17]	1000 to 10000
c1ccc([C@H]2CCc3nc4ccc(-c5ccnc(OC6CCCOC6)c5)nc4n32)cc1 (stereo partly drawn) [Example 48, (8R)-8-Phenyl-2-(2-((tetrahydro-2H-pyran-3-yl)oxy)pyridin-4-yl)-7,8-dihydro-6H-pyrrolo[2′,1′:2,3]imidazo[4,5-b]pyridine]	1000 to 10000
CCN(C)C(=O)c1ccc(-c2ccc3nc4n(c3c2)C(c2ccccc2)CC4)cc1 (centres unmarked) [A.11]	< 1000
O=P(O)(O)OC1CCN(c2ncc(-c3ccc4nc5n(c4n3)[C@@H](c3ccccc3)CC5)cn2)CC1 [Example 46.1, (R)-1-(5-(8-Phenyl-7,8-dihydro-6H-pyrrolo[2′,1′:2,3]imidazo[4,5-b]pyridin-2-yl)pyrimidin-2-yl)piperidin-4-yl dihydrogen phosphate hydrochloride]	1000 to 10000

Next, values leading:

IC50 [nM]	Structure (SMILES)
< 1000	Fc1cccc(C2CCc3nc4ccc(-c5cnc(N6CCOCC6)nc5)nc4n32)c1 (centres unmarked) [M.1]
1000 to 10000	OC1(c2cccc(Cl)c2)CCCc2nc3ccc(-c4cnc(N5CCOCC5)nc4)cn3c21 (centres unmarked) [I.1, 9-(3-Chlorophenyl)-2-(2-morpholinopyrimidin-5-yl)-6,7,8,9-tetrahydrobenzo[4,5]imidazo[1,2-a]pyridin-9-ol]
< 1000	O=C1CN(c2ncc(-c3ccc4nc5n(c4c3)[C@@H](c3ccccc3)COC5)cn2)CCN1 [G.30]
10000 to 100000	O=C(O)C1CN(c2ncc(-c3ccc4nc5n(c4c3)C(c3ccccc3)CCC5)cn2)C1 (centres unmarked) [H.1]
< 1000	Cc1ccc(C)c(C2CCc3nc4ccc(-c5cnc(N6CCC(O)CC6)nc5)nc4n32)c1 (centres unmarked) [N.3]
< 1000	OCC1(F)CCN(c2ncc(-c3ccc4nc5n(c4c3)[C@@H](c3ccccc3)COC5)cn2)CC1 [G.14]
1000 to 10000	CC1(C)C=C(c2ccc3nc4n(c3n2)C2(COC4)COc3ccccc32)CN1 (centres unmarked) [Example 65, 2′-(5,5-Dimethyl-2,5-dihydro-1H-pyrrol-3-yl)-6′,8′-dihydro-2H-spiro[benzofuran-3,9′-pyrido[3′,2′:4,5]imidazo[2,1-c][1,4]oxazine]]
< 1000	O=C1NCC2CN(c3ncc(-c4ccc5nc6n(c5n4)C(c4cccc(F)c4)CC6)cn3)CCN12 (centres unmarked) [M.5]
1000 to 10000	O=C1NCCC12CCN(c1ncc(-c3ccc4nc5n(c4c3)[C@@H](c3ccccc3)COC5)cn1)C2 (some centres unmarked) [G.1]
10000 to 100000	O[C@H]1CN(c2ncc(-c3ccc4nc5n(c4c3)[C@@H](c3ccccc3)COC5)cn2)C[C@@H]1O [G.25]
1000 to 10000	CS(=O)(=O)[C@@H]1CCN(c2ncc(-c3ccc4nc5n(c4c3)[C@@H](c3ccccc3)COC5)cn2)C1 [G.18]
10000 to 100000	O[C@@H]1CN(c2ncc(-c3ccc4nc5n(c4c3)[C@@H](c3ccccc3)COC5)cn2)C[C@H]1O [G.26]
< 1000	C[C@H]1CN(c2ncc(-c3ccc4nc5n(c4n3)[C@@]3(COC5)COc4ccccc43)cn2)CCN1C(=O)CO [Example 75, 1-((S)-4-(5-((S)-6′,8′-Dihydro-2H-spiro[benzofuran-3,9′-pyrido[3′,2′:4,5]imidazo[2,1-c][1,4]oxazin]-2′-yl)pyrimidin-2-yl)-2-methylpiperazin-1-yl)-2-hydroxyethanone]
1000 to 10000	CS(=O)(=O)C1CCN(c2ncc(-c3ccc4nc5n(c4c3)[C@@H](c3ccccc3)COC5)cn2)C1 (some centres unmarked) [G.29]
